Test systems include HOP-62 NSCLC; DLD-1 colon; SNB-78 CNS; UACC-257 melanoma; NCI-H23 lung; MOLT-4 leukemia; NCI-H460 lung; EKVX NSCLC; NCI/ADR-RES ovarian; PC-3 prostate.
Test in all cases: DTP human tumour cell line panel, 48 h

“And” between values parts separate entries of the source, which are not always exact repeats. Equal values may be shown once.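 1) Cells in 96-well plates. 2) Compound, 48 h, 5 concentrations. 3) Linear interpolation between surrounding doses. 4) Unreached endpoint = highest concentration. At the GI50, growth is halved. The concentration for full growth arrest is given as TGI.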

Regarding `COc1ccc(/C(=N/NC(N)=O)C(c2ccc(OC)cc2)C2C(=O)Oc3ccccc32)cc1` (centres undefined), the concentration for total growth inhibition (TGI) with HOP-62 NSCLC, in the experiment with DLD-1 colon, in the experiment on SNB-78 CNS, in the experiment with UACC-257 melanoma, with NCI-H23 lung and with MOLT-4 leukemia was greater than 100 µM throughout. This compound registered a TGI in the experiment on NCI-H460 lung greater than 100 µM.
Take `O=C(OCc1ccc2c(Cl)cc(Cl)c(O)c2n1)c1cc2ccccc2[nH]1`: the GI50 in the experiment on EKVX NSCLC is 1.49 µM; with HOP-62 NSCLC, 1630 nM; with NCI/ADR-RES ovarian it was 0.953 µM; with PC-3 prostate, 0.407 µM; in the experiment on UACC-257 melanoma, 0.88 µM; in the experiment on NCI-H23 lung, 1.49 µM. For the same compound, the concentration for 50% growth inhibition (GI50) in the experiment on MOLT-4 leukemia is 0.407 µM; in the experiment on NCI-H460 lung it was 1.66 µM. Further, the TGI in the experiment with EKVX NSCLC amounted to 3 µM; with HOP-62 NSCLC, 3.81 µM; with NCI/ADR-RES ovarian it was 5.22 µM; in the experiment with PC-3 prostate it was 0.936 µM; in the experiment with UACC-257 melanoma, 3 µM; in the experiment with NCI-H23 lung, 3.2 µM. Besides, the values for the TGI with MOLT-4 leukemia and in the experiment on NCI-H460 lung were 2.35 µM and 3.52 µM, respectively.
Take `CCCCn1sc(=O)n(Cc2ccc(CNC(=O)OCc3ccc4c(Br)cc(Br)c(O)c4n3)cc2)c1=O`: the GI50 in the experiment on EKVX NSCLC is greater than 40.6 µM; in the experiment with HOP-62 NSCLC, 749 nM; in the experiment with NCI/ADR-RES ovarian it was 0.325 µM; in the experiment on PC-3 prostate it was 0.651 µM; with UACC-257 melanoma, greater than 100 µM; in the experiment on NCI-H23 lung, 0.7 µM. Further, the GI50 was 0.895 µM in the experiment on MOLT-4 leukemia and 0.395 µM in the experiment on NCI-H460 lung. Moreover, the TGI in the experiment with EKVX NSCLC, in the experiment with HOP-62 NSCLC, with NCI/ADR-RES ovarian, with PC-3 prostate, in the experiment with UACC-257 melanoma and with NCI-H23 lung was greater than 100 µM in each case. In addition, the TGI in the experiment on MOLT-4 leukemia and in the experiment with NCI-H460 lung was greater than 100 µM in each case.
Regarding `CC1=C[S+](c2ccccc2)c2cccc3cc4ccccc4c1c23` (centres undefined), the GI50 with EKVX NSCLC is 0.333 µM; with HOP-62 NSCLC, 486 nM; in the experiment on NCI/ADR-RES ovarian it was 3.87 µM; with PC-3 prostate it was 0.247 µM; with UACC-257 melanoma, 0.315 µM; in the experiment on NCI-H23 lung, 1.09 µM. In addition, the GI50 is 0.572 µM with MOLT-4 leukemia and 0.349 µM with NCI-H460 lung. The TGI was 4.99 µM with EKVX NSCLC; greater than 55.3 µM in the experiment with NCI/ADR-RES ovarian; 12.1 µM with PC-3 prostate; 1.68 µM with UACC-257 melanoma; 2.86 µM in the experiment on NCI-H23 lung; 9.26 µM in the experiment on MOLT-4 leukemia. Moreover, in the experiment on NCI-H460 lung, the TGI was 2.37 µM.
On to `N#Cc1ccc(C(c2ccc(C#N)cc2)n2cncn2)cc1`, for which the GI50 is greater than 5000 µM with EKVX NSCLC; 915000 nM in the experiment on HOP-62 NSCLC; greater than 5000 µM in the experiment with NCI/ADR-RES ovarian; greater than 5000 µM in the experiment on PC-3 prostate; greater than 5000 µM in the experiment on UACC-257 melanoma; greater than 5000 µM in the experiment with NCI-H23 lung. Further, the GI50 in the experiment on MOLT-4 leukemia and in the experiment on NCI-H460 lung was greater than 5000 µM in each case. Further, the TGI in the experiment with EKVX NSCLC, in the experiment with HOP-62 NSCLC, in the experiment with NCI/ADR-RES ovarian, with PC-3 prostate, in the experiment with UACC-257 melanoma and in the experiment on NCI-H23 lung was greater than 5000 µM in each case. For the same compound, the total growth inhibition concentration (TGI) in the experiment with MOLT-4 leukemia and in the experiment on NCI-H460 lung was greater than 5000 µM throughout.
Consider `CCCCCC/C=C\CCCCCCCCCC1=CC(=O)C=C(OC)C1=O`, for which the TGI in the experiment on EKVX NSCLC came to 12.5 µM; with HOP-62 NSCLC it was 14.8 µM; in the experiment on NCI/ADR-RES ovarian, 19.1 µM; in the experiment with PC-3 prostate it was 11 µM; in the experiment with UACC-257 melanoma, 9.11 µM; in the experiment on NCI-H23 lung, 12 µM. Moreover, the TGI in the experiment on MOLT-4 leukemia is greater than 100 µM; in the experiment on NCI-H460 lung, 11.1 µM.
Take `C#Cc1cccc(Nc2nc3ccc([N+](=O)[O-])cc3nc2Nc2cccc(C#C)c2)c1`: the GI50 in the experiment with EKVX NSCLC is 0.249 µM; in the experiment on HOP-62 NSCLC, 188 nM; in the experiment on NCI/ADR-RES ovarian it was 0.284 µM; in the experiment with PC-3 prostate, 0.22 µM; in the experiment on UACC-257 melanoma, 0.207 µM; with NCI-H23 lung, 0.265 µM. For the same compound, the values for the GI50 in the experiment on MOLT-4 leukemia and in the experiment on NCI-H460 lung were 0.247 µM and 0.209 µM, respectively. For the same compound, the TGI came to 0.987 µM with EKVX NSCLC; 0.476 µM with HOP-62 NSCLC; 1.1 µM with NCI/ADR-RES ovarian; 1.17 µM in the experiment on PC-3 prostate; 0.602 µM in the experiment on UACC-257 melanoma; 0.911 µM in the experiment with NCI-H23 lung. The TGI was 1.02 µM in the experiment with MOLT-4 leukemia and 0.899 µM in the experiment on NCI-H460 lung.
On to `CCCSC1=NC2C(N(CC)C(=O)N2CC)N1/N=C/C=C/c1ccccc1[N+](=O)[O-]` (centres undefined), for which the GI50 was 3.89 µM with EKVX NSCLC; 3790 nM in the experiment on HOP-62 NSCLC; 2.5 µM in the experiment on NCI/ADR-RES ovarian; 3.33 µM with PC-3 prostate; 11 µM in the experiment with UACC-257 melanoma; 4.04 µM with NCI-H23 lung. Further, the GI50 in the experiment with MOLT-4 leukemia is 3.36 µM; in the experiment with NCI-H460 lung, 3.45 µM. The TGI in the experiment on EKVX NSCLC was greater than 100 µM; in the experiment on HOP-62 NSCLC it was greater than 100 µM; in the experiment on NCI/ADR-RES ovarian, 8.46 µM; with PC-3 prostate, greater than 100 µM; in the experiment with UACC-257 melanoma, greater than 100 µM; with NCI-H23 lung it was greater than 100 µM. Moreover, the TGI with MOLT-4 leukemia and in the experiment with NCI-H460 lung was greater than 100 µM in each case.
Regarding `O=C(CC(=O)C1CCOC1=O)C(=O)Nc1ccc(Cl)cc1Cl` (centres undefined), the TGI with EKVX NSCLC, with HOP-62 NSCLC, in the experiment with DLD-1 colon, with SNB-78 CNS, with UACC-257 melanoma and with NCI-H23 lung was greater than 100 µM throughout. Besides, the TGI in the experiment with NCI-H460 lung is greater than 100 µM.
For the compound `CC1=C(c2cc(C(=O)Nc3cccc(C(F)(F)F)c3)ncn2)Sc2ccccc2N1`, the TGI in the experiment with EKVX NSCLC, in the experiment on HOP-62 NSCLC, in the experiment with DLD-1 colon, with UACC-257 melanoma, in the experiment on NCI-H23 lung and in the experiment on MOLT-4 leukemia was greater than 100 µM each time. In the experiment on NCI-H460 lung, the TGI is greater than 100 µM.
As for `COC1=Nc2ccccc2S(=O)(=O)C=C1`, the TGI with EKVX NSCLC is 32.1 µM; with HOP-62 NSCLC, greater than 100 µM; in the experiment on NCI/ADR-RES ovarian, 36.2 µM; in the experiment with PC-3 prostate, 28.7 µM; with UACC-257 melanoma, 20.5 µM; with NCI-H23 lung, 21.4 µM. The TGI came out at 2.47 µM in the experiment on MOLT-4 leukemia and 37.3 µM in the experiment with NCI-H460 lung. The GI50 with UACC-257 melanoma is 0.671 µM; with MOLT-4 leukemia, 0.489 µM and 0.44 µM.

A word on the TGI: it is the concentration at which net growth stops. A low value points to more potent growth arrest. The term GI50 denotes the concentration giving 50% growth inhibition.

Source of the values: PubChem BioAssay (NCI).
